Measurements from patent US7820623B2 (priority 2006, dated 2010).
Bridge positions count the residues as written; N and C are the ends. Square brackets hold non-standard residues; d marks the D form. Peptide text beside a SMILES is read from it. 1Nal = N[C@@H](Cc1cccc2ccccc12)C(=O)O

Key:
[1] = test system: thapsigargin-induced IL-2 production in human whole blood; conditions: read-out: Analogue Activity (IC50) WB/IL-2
[2] = test system: thapsigargin-induced IFN-g production in human whole blood; assay type: cell-based; conditions: read-out: Analogue Activity (IC50) WB/IFNg

Structure (SMILES)	IC50 [1] [nM]	IC50 [2] [nM]
CC[C@H](C)[C@@H]1NC(=O)[C@H](CCCCN)NC(=O)[C@@H](NC(=O)[C@H](CCCCN)NC(=O)[C@@H](NC(=O)[C@H](CC(N)=O)NC(=O)[C@@H](NC(=O)[C@@H](NC(=O)[C@@H](NC(=O)CN)C(C)C)[C@@H](C)CC)[C@@H](C)CC)C(C)C)CSSC[C@@H]2NC(=O)[C@H](CCCCN)NC(=O)CNC(=O)[C@H](Cc3ccccc3)NC(=O)[C@H](CCCNC(=N)N)NC(=O)[C@H](CCSC)NC(=O)CNC(=O)[C@H](C)NC(=O)[C@H](CCCCN)NC(=O)[C@H](CCCCN)NC(=O)[C@@H]3CSSC[C@@H](C(=O)N[C@H](C(=O)N4CCC[C@H]4C(=O)N[C@@H](CCCCN)C(=O)O)[C@@H](C)O)NC(=O)[C@H](Cc4c[nH]cn4)NC(=O)[C@H](CSSC[C@H](NC(=O)[C@H](CCC(N)=O)NC(=O)[C@H](CCCNC(=N)N)NC(=O)[C@H](CO)NC1=O)C(=O)N[C@@H](Cc1cccc4ccccc14)C(=O)N[C@@H](CCC(=O)O)C(=O)N1CCC[C@H]1C(=O)N3)NC(=O)[C@H](CCCCN)NC(=O)CNC(=O)[C@H](CC(N)=O)NC(=O)[C@H](CCSC)NC2=O [L15Nal] (H-GVIINVKCKISRQC[1Nal]EPCKKAGMRFGKCMNGKCHCTPK-OH; disulfide 8-28, 14-33, 18-35)	0.358	0.37
CC[C@H](C)[C@@H]1NC(=O)[C@H](CCCCN)NC(=O)[C@@H](NC(=O)[C@H](CCCCN)NC(=O)[C@@H](NC(=O)[C@H](CC(N)=O)NC(=O)[C@@H](NC(=O)[C@@H](NC(=O)[C@@H](NC(=O)CN)C(C)C)[C@@H](C)CC)[C@@H](C)CC)C(C)C)CSSC[C@@H]2NC(=O)[C@H](CCCCN)NC(=O)CNC(=O)[C@H](Cc3ccccc3)NC(=O)[C@H](CCCNC(=N)N)NC(=O)[C@H](CCSC)NC(=O)CNC(=O)[C@H](C)NC(=O)[C@H](CCCCN)NC(=O)[C@H](CCCCN)NC(=O)[C@@H]3CSSC[C@@H](C(=O)N[C@H](C(=O)N4CCC[C@H]4C(=O)N[C@@H](CCCCN)C(=O)O)[C@@H](C)O)NC(=O)[C@H](Cc4c[nH]cn4)NC(=O)[C@H](CSSC[C@H](NC(=O)[C@H](CCC(N)=O)NC(=O)[C@H](CCCNC(=N)N)NC(=O)[C@H](CO)NC1=O)C(=O)N[C@@H](CCCNC(=N)N)C(=O)N[C@@H](CCC(=O)O)C(=O)N1CCC[C@H]1C(=O)N3)NC(=O)[C@H](CCCCN)NC(=O)CNC(=O)[C@H](CC(N)=O)NC(=O)[C@H](CCSC)NC2=O [L15R] (H-GVIINVKCKISRQCREPCKKAGMRFGKCMNGKCHCTPK-OH; disulfide 8-28, 14-33, 18-35)	0.093	0.116
CC[C@H](C)[C@@H]1NC(=O)[C@H](CCCCN)NC(=O)[C@@H](NC(=O)[C@H](CCCCN)NC(=O)[C@@H](NC(=O)[C@H](CC(N)=O)NC(=O)[C@@H](NC(=O)[C@@H](NC(=O)[C@@H](NC(=O)CN)C(C)C)[C@@H](C)CC)[C@@H](C)CC)C(C)C)CSSC[C@@H]2NC(=O)[C@H](CCCCN)NC(=O)CNC(=O)[C@H](Cc3ccccc3)NC(=O)[C@H](CCCNC(=N)N)NC(=O)[C@H](C)NC(=O)CNC(=O)[C@H](C)NC(=O)[C@H](CCCCN)NC(=O)[C@H](CCCCN)NC(=O)[C@@H]3CSSC[C@@H](C(=O)N[C@H](C(=O)N4CCC[C@H]4C(=O)N[C@@H](CCCCN)C(=O)O)[C@@H](C)O)NC(=O)[C@H](Cc4c[nH]cn4)NC(=O)[C@H](CSSC[C@H](NC(=O)[C@H](CCC(N)=O)NC(=O)[C@H](CCCNC(=N)N)NC(=O)[C@H](CO)NC1=O)C(=O)N[C@@H](CC(C)C)C(=O)N[C@@H](CCC(=O)O)C(=O)N1CCC[C@H]1C(=O)N3)NC(=O)[C@H](CCCCN)NC(=O)CNC(=O)[C@H](CC(N)=O)NC(=O)[C@H](CCSC)NC2=O [M23A] (H-GVIINVKCKISRQCLEPCKKAGARFGKCMNGKCHCTPK-OH; disulfide 8-28, 14-33, 18-35)	0.275	0.275
CC[C@H](C)[C@@H]1NC(=O)[C@H](CCCCN)NC(=O)[C@@H](NC(=O)[C@H](CCCCN)NC(=O)[C@@H](NC(=O)[C@H](CC(N)=O)NC(=O)[C@@H](NC(=O)[C@@H](NC(=O)[C@@H](NC(=O)CN)C(C)C)[C@@H](C)CC)[C@@H](C)CC)C(C)C)CSSC[C@@H]2NC(=O)[C@H](CCCCN)NC(=O)CNC(=O)[C@H](Cc3ccccc3)NC(=O)[C@H](CCCNC(=N)N)NC(=O)[C@H](CCC(=O)O)NC(=O)CNC(=O)[C@H](C)NC(=O)[C@H](CCCCN)NC(=O)[C@H](CCCCN)NC(=O)[C@@H]3CSSC[C@@H](C(=O)N[C@H](C(=O)N4CCC[C@H]4C(=O)N[C@@H](CCCCN)C(=O)O)[C@@H](C)O)NC(=O)[C@H](Cc4c[nH]cn4)NC(=O)[C@H](CSSC[C@H](NC(=O)[C@H](CCC(N)=O)NC(=O)[C@H](CCCNC(=N)N)NC(=O)[C@H](CO)NC1=O)C(=O)N[C@@H](CC(C)C)C(=O)N[C@@H](CCC(=O)O)C(=O)N1CCC[C@H]1C(=O)N3)NC(=O)[C@H](CCCCN)NC(=O)CNC(=O)[C@H](CC(N)=O)NC(=O)[C@H](CCSC)NC2=O [M23E] (H-GVIINVKCKISRQCLEPCKKAGERFGKCMNGKCHCTPK-OH; disulfide 8-28, 14-33, 18-35)	0.606	0.666
CC[C@H](C)[C@@H]1NC(=O)[C@H](CCCCN)NC(=O)[C@@H](NC(=O)[C@H](CCCCN)NC(=O)[C@@H](NC(=O)[C@H](CC(N)=O)NC(=O)[C@@H](NC(=O)[C@@H](NC(=O)[C@@H](NC(=O)CN)C(C)C)[C@@H](C)CC)[C@@H](C)CC)C(C)C)CSSC[C@@H]2NC(=O)[C@H](CCCCN)NC(=O)CNC(=O)[C@H](Cc3ccccc3)NC(=O)[C@H](CCCNC(=N)N)NC(=O)[C@H](Cc3cccc4ccccc34)NC(=O)CNC(=O)[C@H](C)NC(=O)[C@H](CCCCN)NC(=O)[C@H](CCCCN)NC(=O)[C@@H]3CSSC[C@@H](C(=O)N[C@H](C(=O)N4CCC[C@H]4C(=O)N[C@@H](CCCCN)C(=O)O)[C@@H](C)O)NC(=O)[C@H](Cc4c[nH]cn4)NC(=O)[C@H](CSSC[C@H](NC(=O)[C@H](CCC(N)=O)NC(=O)[C@H](CCCNC(=N)N)NC(=O)[C@H](CO)NC1=O)C(=O)N[C@@H](CC(C)C)C(=O)N[C@@H](CCC(=O)O)C(=O)N1CCC[C@H]1C(=O)N3)NC(=O)[C@H](CCCCN)NC(=O)CNC(=O)[C@H](CC(N)=O)NC(=O)[C@H](CCSC)NC2=O [M23Nal] (H-GVIINVKCKISRQCLEPCKKAG[1Nal]RFGKCMNGKCHCTPK-OH; disulfide 8-28, 14-33, 18-35)	0.581	1.11
CC[C@H](C)[C@@H]1NC(=O)[C@H](CCCCN)NC(=O)[C@@H](NC(=O)[C@H](CCCCN)NC(=O)[C@@H](NC(=O)[C@H](CC(N)=O)NC(=O)[C@@H](NC(=O)[C@@H](NC(=O)[C@@H](NC(=O)CN)C(C)C)[C@@H](C)CC)[C@@H](C)CC)C(C)C)CSSC[C@@H]2NC(=O)[C@H](CCCCN)NC(=O)CNC(=O)[C@H](Cc3ccccc3)NC(=O)[C@H](CCCNC(=N)N)NC(=O)[C@H](CCCNC(=N)N)NC(=O)CNC(=O)[C@H](C)NC(=O)[C@H](CCCCN)NC(=O)[C@H](CCCCN)NC(=O)[C@@H]3CSSC[C@@H](C(=O)N[C@H](C(=O)N4CCC[C@H]4C(=O)N[C@@H](CCCCN)C(=O)O)[C@@H](C)O)NC(=O)[C@H](Cc4c[nH]cn4)NC(=O)[C@H](CSSC[C@H](NC(=O)[C@H](CCC(N)=O)NC(=O)[C@H](CCCNC(=N)N)NC(=O)[C@H](CO)NC1=O)C(=O)N[C@@H](CC(C)C)C(=O)N[C@@H](CCC(=O)O)C(=O)N1CCC[C@H]1C(=O)N3)NC(=O)[C@H](CCCCN)NC(=O)CNC(=O)[C@H](CC(N)=O)NC(=O)[C@H](CCSC)NC2=O [M23R] (H-GVIINVKCKISRQCLEPCKKAGRRFGKCMNGKCHCTPK-OH; disulfide 8-28, 14-33, 18-35)	0.182	0.148
CC[C@H](C)[C@@H]1NC(=O)[C@H](CCCCN)NC(=O)[C@@H](NC(=O)[C@H](CCCCN)NC(=O)[C@@H](NC(=O)[C@H](C)NC(=O)[C@@H](NC(=O)[C@@H](NC(=O)[C@@H](NC(=O)CN)C(C)C)[C@@H](C)CC)[C@@H](C)CC)C(C)C)CSSC[C@@H]2NC(=O)[C@H](CCCCN)NC(=O)CNC(=O)[C@H](Cc3ccccc3)NC(=O)[C@H](CCCNC(=N)N)NC(=O)[C@H](CCSC)NC(=O)CNC(=O)[C@H](C)NC(=O)[C@H](CCCCN)NC(=O)[C@H](CCCCN)NC(=O)[C@@H]3CSSC[C@@H](C(=O)N[C@H](C(=O)N4CCC[C@H]4C(=O)N[C@@H](CCCCN)C(=O)O)[C@@H](C)O)NC(=O)[C@H](Cc4c[nH]cn4)NC(=O)[C@H](CSSC[C@H](NC(=O)[C@H](CCC(N)=O)NC(=O)[C@H](CCCNC(=N)N)NC(=O)[C@H](CO)NC1=O)C(=O)N[C@@H](CC(C)C)C(=O)N[C@@H](CCC(=O)O)C(=O)N1CCC[C@H]1C(=O)N3)NC(=O)[C@H](CCCCN)NC(=O)CNC(=O)[C@H](CC(N)=O)NC(=O)[C@H](CCSC)NC2=O [N5A] (H-GVIIAVKCKISRQCLEPCKKAGMRFGKCMNGKCHCTPK-OH; disulfide 8-28, 14-33, 18-35)	0.0679	0.067
CC[C@H](C)[C@@H]1NC(=O)[C@H](CCCCN)NC(=O)[C@@H](NC(=O)[C@H](CCCCN)NC(=O)[C@@H](NC(=O)[C@H](CCC(=O)O)NC(=O)[C@@H](NC(=O)[C@@H](NC(=O)[C@@H](NC(=O)CN)C(C)C)[C@@H](C)CC)[C@@H](C)CC)C(C)C)CSSC[C@@H]2NC(=O)[C@H](CCCCN)NC(=O)CNC(=O)[C@H](Cc3ccccc3)NC(=O)[C@H](CCCNC(=N)N)NC(=O)[C@H](CCSC)NC(=O)CNC(=O)[C@H](C)NC(=O)[C@H](CCCCN)NC(=O)[C@H](CCCCN)NC(=O)[C@@H]3CSSC[C@@H](C(=O)N[C@H](C(=O)N4CCC[C@H]4C(=O)N[C@@H](CCCCN)C(=O)O)[C@@H](C)O)NC(=O)[C@H](Cc4c[nH]cn4)NC(=O)[C@H](CSSC[C@H](NC(=O)[C@H](CCC(N)=O)NC(=O)[C@H](CCCNC(=N)N)NC(=O)[C@H](CO)NC1=O)C(=O)N[C@@H](CC(C)C)C(=O)N[C@@H](CCC(=O)O)C(=O)N1CCC[C@H]1C(=O)N3)NC(=O)[C@H](CCCCN)NC(=O)CNC(=O)[C@H](CC(N)=O)NC(=O)[C@H](CCSC)NC2=O [N5E] (H-GVIIEVKCKISRQCLEPCKKAGMRFGKCMNGKCHCTPK-OH; disulfide 8-28, 14-33, 18-35)	0.1	0.065
